Assay results reported in patent US20240299292A1, “STABLE SEMI-SOLID CHEWABLE GEL COMPOSITIONS AND METHODS OF MAKING AND USING THEREOF” (Seattle Gummy Company, priority 2021, published 2024).

Assays:
[1] = ITC association constant of cetirizine-β-cyclodextrin complex; assay type: binding; details: beta vs alpha and gamma cyclodextrin
Description: Either the phenyl group or the 4-chlorophenyl group fit inside the ring structure. The inside cavity of cylcodextrins is largely hydrophobic which is favorable for aromatic systems that are also hydrophobic. The formation of the chelate structure is […] favorable due to electrostatic interactions of the pi system of the aromatic moiety with in the hydrophobic cavity and electronic interaction with the hydrogen atoms and […]. It is these electronic interactions between these systems of the cyclodextrin and the pi system that gives the favorable heat of formation.

[2] = ITC measurements; cited from earlier work
[3] = ITC measurements; cited from earlier work; remark: listed apart in the source
[4] = ITC measurements; cited from earlier work; remark: listed apart in the source

## O=C(O)COCCN1CCN(C(c2ccccc2)c2ccc(Cl)cc2)CC1 (stereo not shown) [cetirizine]
[1]
  formation constant of beta cyclodextrin complex relative to alpha and gamma cyclodextrin: nearly four times
[2]
  association constant K(a), cetirizine-β-cyclodextrin complex: 5641 ± 358 M⁻¹
[3]
  association constant K(a), cetirizine-α-cyclodextrin complex: 1434 ± 60 M⁻¹
[4]
  association constant, cetirizine-γ-cyclodextrin complex: 1200 ± 50 M⁻¹
